Data from patent publication US20150183737A1, “COMPOSITIONS AND METHODS FOR SUBSTRATE-SELECTIVE INHIBITION OF ENDOCANNABINOID OXYGENATION” (Vanderbilt University, priority 2012, published 2015).
Entries after “also recorded” stand apart in the source; their conditions may differ.

How the values were obtained:
ICR mice = assay: Elevated plus-maze (EPM); format: in vivo; conditions: 10 mg/kg
Human DAGLα = molecular target: T1, Human DAGLα (Homo sapiens, UniProt Q9Y4D2); assay: DAGLα activity (Compound A); format: biochemical; conditions: in vitro
T1 construct: made in house; host or cells: HEK293T cells (transfected, pcDNA3.1D); membranes used
T1 sequence (Q9Y4D2 1-1042): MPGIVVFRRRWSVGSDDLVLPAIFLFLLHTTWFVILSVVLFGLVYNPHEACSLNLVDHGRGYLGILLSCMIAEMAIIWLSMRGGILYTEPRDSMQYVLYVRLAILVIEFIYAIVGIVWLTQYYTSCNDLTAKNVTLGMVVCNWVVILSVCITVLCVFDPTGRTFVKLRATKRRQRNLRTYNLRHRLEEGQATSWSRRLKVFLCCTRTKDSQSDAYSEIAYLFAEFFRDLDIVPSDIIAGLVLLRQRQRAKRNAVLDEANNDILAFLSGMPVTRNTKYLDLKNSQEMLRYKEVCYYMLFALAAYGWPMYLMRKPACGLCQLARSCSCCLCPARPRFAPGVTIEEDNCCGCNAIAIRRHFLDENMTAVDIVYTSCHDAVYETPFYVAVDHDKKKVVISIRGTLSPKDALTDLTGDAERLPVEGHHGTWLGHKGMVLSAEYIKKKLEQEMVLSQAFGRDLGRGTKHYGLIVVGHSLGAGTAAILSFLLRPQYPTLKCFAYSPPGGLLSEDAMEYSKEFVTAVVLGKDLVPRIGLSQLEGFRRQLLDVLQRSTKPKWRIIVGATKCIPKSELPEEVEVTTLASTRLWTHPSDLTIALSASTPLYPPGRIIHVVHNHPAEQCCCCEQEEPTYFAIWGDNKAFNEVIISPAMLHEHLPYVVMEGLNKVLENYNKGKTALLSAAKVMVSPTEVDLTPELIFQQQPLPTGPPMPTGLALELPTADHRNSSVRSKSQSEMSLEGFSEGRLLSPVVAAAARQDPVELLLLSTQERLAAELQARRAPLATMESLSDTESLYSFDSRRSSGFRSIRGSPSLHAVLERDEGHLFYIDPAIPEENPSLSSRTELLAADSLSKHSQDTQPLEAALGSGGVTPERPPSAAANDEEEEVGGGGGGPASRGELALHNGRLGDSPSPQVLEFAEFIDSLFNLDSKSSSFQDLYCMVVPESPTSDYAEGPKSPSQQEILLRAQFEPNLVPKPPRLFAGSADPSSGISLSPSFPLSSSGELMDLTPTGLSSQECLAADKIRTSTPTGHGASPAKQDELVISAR

Structure (SMILES): COc1ccc2c(c1)c(CC(=O)N1CCOCC1)c(C)n2C(=O)c1ccc(Cl)cc1 [Compound A, 2-[1-(4-Chloro-benzoyl)-5-methoxy-2-methyl-1H-indol-3-yl]-1-morpholin-4-yl-ethanone]
- Open arm latency (ICR mice): significantly reduced; also recorded: decreased
- Other EPM parameters (open arm time, total distance traveled) (ICR mice): did not affect; also recorded: did not increase
- Inhibition of DAGLα (Human DAGLα): did not inhibit
